# Laboratory results: US20220265817A1, “THERAPEUTIC COMPOSITIONS AND METHODS FOR TREATING HEPATITIS B” (priority 2017, published 2022)
# Read-outs that look alike come from different tables or passages of the source.
# How the values were obtained:
# [1] = tested on: D type HBV in primary human hepatocytes (HBsAg); assay: microbe, parasite or virus in culture; assay type: cell-based; settings: Hepatitis B virus, Hepatocyte
# How it was run: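 HBsAg inhibition versus DMSO control was determined by ELISA of day 8 supernatants. Percoll-purified PHHs received D type HBV one day after seeding, with compounds from day 2 and media changes every other day. Singles at 7 concentrations (3-fold, triplicate); pairs in 5×5 matrices.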
# [2] = tested on: HBV rcDNA in AML12-HBV10 cells; assay: AML12-HBV10 cell culture system, rcDNA quantitation using bDNA assay, MacSynergy II; assay type: cell-based, mouse hepatocyte cell line; settings: for EC50: rcDNA, AML12-HBV10 cells, 48 hrs, read-out: Inhibitor EC50; for inhibition at 0.01 µM: Compound 3 0.010 μM; for inhibition at 0.02 µM: Compound 3 0.020 μM; for inhibition at 0.039 µM: Compound 3 0.039 μM; for inhibition at 0.078 µM: Compound 3 0.078 μM; for inhibition at 0.313 µM: Compound 3 0.313 μM; for inhibition at 0.625 µM: Compound 3 0.625 μM; for inhibition at 1.25 µM: Compound 3 1.250 μM
# Method: In vitro combination studies were conducted using the method of Prichard and Shipman (Prichard M N, and Shipman C Jr., Antiviral Research, 1990, 14 (4-5), 181-205; and Prichard M N, et. al., MacSynergy II). The AML12-HBV10 cell line was developed as described in Campagna et al. (Campagna et. al., J. Virology, 2013, 87(12), 6931-6942). It is a mouse hepatocyte cell line stably transfected with the HBV genome, and which can express HBV pregenomic RNA and support HBV rcDNA (relaxed circular DNA) synthesis in a tetracycline-regulated manner. AML12-HBV10 cells were plated in 96 well tissue-culture treated microtiter plates in DMEM/F12 medium supplemented with 10% fetal bovine serum +1% penicillin-streptomycin without tetracycline and incubated in a humidified incubator at 37° C. and 5% CO2 overnight. […] The two inhibitors were tested both singly as well as in combinations in a checkerboard fashion such that each concentration of inhibitor A was combined with each concentration of inhibitor B to determine their combination effects on inhibition of rcDNA production. Following a 48 hour-incubation, the level of rcDNA present in the inhibitor-treated wells was measured using a bDNA assay (Affymetrix) with HBV specific custom probe set and manufacturer's instructions. […] Concurrently, the effect of inhibitor combinations on cell viability was assessed using replicate plates that were used to determine the ATP content as a measure of cell viability using the cell-titer glo reagent (Promega) as per manufacturer's instructions.
# hepatitis B virus (HBV) = assay: Humanized liver chimeric mouse model of chronic HBV infection, serum HBV DNA by quantitative PCR; assay type: in vivo; settings: mean
# Method: This work was conducted in a well-established humanized liver chimeric mouse model of chronic hepatitis B virus (HBV) infection (Tsuge et al., Hepatology, 42(5), 1046-54 (2005)). A persistent level of HBV infection was established in the animals prior to the treatment phase which started at Day 0.
# The anti-HBV effects were assessed based on serum HBsAg levels using the GS HBsAg EIA 3.0 enzyme linked immunosorbent assay kit from Bio-Rad Laboratories as per manufacturer instructions; and serum HBV DNA levels measured from total extracted DNA using a quantitative PCR assay (primer/probe sequences from Tanaka et al., Journal of Medical Virology, 72, 223-229 (2004)).
# [3] = Hepatitis B virus, AML12HBV10, in Mus musculus, ETV μM: 0.075, 0.025, 0.008, 0.003, 0.001, 0
# [4] = Hepatitis B virus, AML12HBV10, in Mus musculus, SIRNA-NP μg/mL: 0.5, 0.167, 0.056, 0.019, 0.006, 0
smiles,measurement,setting,value
CC[C@@H](C)NS(=O)(=O)c1ccc(F)c(C(=O)Nc2ccc(F)c(F)c2)c1 [Compound 3],EC50,"[1]; 456 h, read-out: Inhibitor B EC50",7.79 µM
same,EC50,"[1]; 576 h, read-out: Inhibitor B EC50 HBsAg",7.79 µM
same,inhibition at 0.06173 µM,"[1]; read-out: AVERAGE % INHIBITION HBsAg, COMPOUND 3 61.73 nM alone (Table 19b)",-20%
same,inhibition at 0.06864 µM,"[1]; read-out: AVERAGE % INHIBITION HBsAg, COMPOUND 3 68.64 nM alone (Table 20b)",-16.4%
same,inhibition at 0.18519 µM,"[1]; read-out: AVERAGE % INHIBITION HBsAg, COMPOUND 3 185.19 nM alone (Table 19b)",-17.3%
same,inhibition at 0.20593 µM,"[1]; read-out: AVERAGE % INHIBITION HBsAg, COMPOUND 3 205.93 nM alone (Table 20b)",-21.6%
same,inhibition at 0.55556 µM,"[1]; read-out: AVERAGE % INHIBITION HBsAg, COMPOUND 3 555.56 nM alone (Table 19b)",-14%
same,inhibition at 0.61778 µM,"[1]; read-out: AVERAGE % INHIBITION HBsAg, COMPOUND 3 617.78 nM alone (Table 20b)",-5.12%
same,inhibition at 1.66667 µM,"[1]; read-out: AVERAGE % INHIBITION HBsAg, COMPOUND 3 1666.67 nM alone (Table 19b)",1.44%
same,inhibition at 1.85333 µM,"[1]; read-out: AVERAGE % INHIBITION HBsAg, COMPOUND 3 1853.33 nM alone (Table 20b)",14.6%
same,inhibition at 5 µM,"[1]; read-out: AVERAGE % INHIBITION HBsAg, COMPOUND 3 5000.00 nM alone (Table 19b)",28.2%
same,inhibition at 5.56 µM,"[1]; read-out: AVERAGE % INHIBITION HBsAg, COMPOUND 3 5560.00 nM alone (Table 20b)",43.8%
same,inhibition at 61.73 µM,"[1]; read-out: AVERAGE % INHIBITION HBsAg, COMPOUND 3 61.73 μM alone",-5.49%
same,inhibition at 185.19 µM,"[1]; read-out: AVERAGE % INHIBITION HBsAg, COMPOUND 3 185.19 μM alone",-1.46%
same,inhibition at 555.56 µM,"[1]; read-out: AVERAGE % INHIBITION HBsAg, COMPOUND 3 555.56 μM alone",4.63%
same,EC50,[1]; read-out: Inhibitor EC50,7.79 µM
same,EC50,"[2]; Hepatitis B virus, AML12HBV10, in Mus musculus, 48 h",0.25 µM
same,inhibition at 0.01 µM,[2]; [3],-3.19%
same,inhibition at 0.01 µM,[2]; [4],-1.98%
same,inhibition at 0.02 µM,[2]; [3],0.62%
same,inhibition at 0.02 µM,[2]; [4],-20.5%
same,inhibition at 0.039 µM,[2]; [3],7.38%
same,inhibition at 0.039 µM,[2]; [4],-16.9%
same,inhibition at 0.078 µM,[2]; [3],-1.81%
same,inhibition at 0.078 µM,[2]; [4],20.1%
same,inhibition at 0.313 µM,[2]; [3],71%
same,inhibition at 0.313 µM,[2]; [4],59.4%
same,inhibition at 0.625 µM,[2]; [3],80.8%
same,inhibition at 0.625 µM,[2]; [4],79.9%
same,inhibition at 1.25 µM,[2]; [3],86.7%
same,inhibition at 1.25 µM,[2]; [4],88.1%
same,inhibition at 2.5 µM,"[2]; Hepatitis B virus, AML12HBV10, in Mus musculus, Compound 3 2.500 μM, ETV μM: 0.075, 0.025, 0.008, 0.003, 0.001, 0",90.5%
same,inhibition at 2.5 µM,"[2]; Hepatitis B virus, AML12HBV10, in Mus musculus, Compound 3 2.5 μM, SIRNA-NP μg/mL: 0.5, 0.167, 0.056, 0.019, 0.006, 0",89.7%
same,EC50,[2],0.231 µM
same,Serum HBV DNA,"hepatitis B virus (HBV); Day 0 (start of treatment), SEM in the line below",1.70E+08 Copies/mL
same,Serum HBV DNA,"hepatitis B virus (HBV); Day 7, Compound 3 oral 100 mg/kg twice daily, SIRNA-NP iv 3 mg/kg every 2 weeks, ETV oral 1.2 μg/kg daily, pegIFN α-2a sc 30 μg/kg twice a week",1.33E+07 Copies/mL
same,Serum HBV DNA,"hepatitis B virus (HBV); Day 14, same dosages",1.28E+07 Copies/mL
same,Serum HBV DNA,"hepatitis B virus (HBV); Day 21, same dosages",1.02E+07 Copies/mL
same,Serum HBV DNA,"hepatitis B virus (HBV); Day 28, same dosages",1.17E+07 Copies/mL
